Test results taken from patent US11648254B2 (Kumquat Biosciences Inc., priority 2021, dated 2023).
Read-outs that look alike come from different tables or passages of the source.

Tests used:
SOS1 = SOS1 (Homo sapiens (Human), UniProt Q07889); test: Ras-SOS interaction assay (HTRF); type: biochemical
[1] = test system: NCI-H1975 cells (EGFR T790M L858R); test: EGFR-SOS cellular inhibition assay (CellTiter-Glo, 3D); type: cell-based; settings: Homo sapiens
[2] = test system: MIA PaCa-2 cells (K-Ras G12C); test: Ras-SOS cellular growth inhibition assay (CellTiter-Glo, 3D); type: cell-based; settings: Homo sapiens
Procedure, shortened: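 Growth read by CellTiter-Glo luminescence about 5 days after dosing with 3-fold dilutions (9 points), added one day post-seeding. Cells: MIA PaCa-2, 3D culture on ultra-low-attachment surface, medium DMEM/Ham's F12 plus 10% FCS and 2.5% horse serum; IC50 by four-parameter fit.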

[3] = K-RasG13D utilized, read-out: IC50 inhibition of SOS
[4] = K-RasG13D, read-out: IC50 value against SOS1
[5] = 120 h, NCI-H1975, 3D proliferation, about 5 days, read-out: Bio-Cell-Prolif-3D (H1975 IC50)
[6] = MIA PaCa-2, 120 h, MIA PaCa-2, 3D proliferation, about 5 days, read-out: Bio-Cell-Prolif-3D (MiaPaca2 IC50)
[7] = MIA PaCa-2, MIA PaCa-2, read-out: IC50 in inhibiting MIA PaCa-2 cell growth
[8] = NCI-H1975, EGFR T790M L858R, read-out: IC50 in inhibiting growth of NCI-H1975 cell line

SOS1, sequence (Q07889 564-1049): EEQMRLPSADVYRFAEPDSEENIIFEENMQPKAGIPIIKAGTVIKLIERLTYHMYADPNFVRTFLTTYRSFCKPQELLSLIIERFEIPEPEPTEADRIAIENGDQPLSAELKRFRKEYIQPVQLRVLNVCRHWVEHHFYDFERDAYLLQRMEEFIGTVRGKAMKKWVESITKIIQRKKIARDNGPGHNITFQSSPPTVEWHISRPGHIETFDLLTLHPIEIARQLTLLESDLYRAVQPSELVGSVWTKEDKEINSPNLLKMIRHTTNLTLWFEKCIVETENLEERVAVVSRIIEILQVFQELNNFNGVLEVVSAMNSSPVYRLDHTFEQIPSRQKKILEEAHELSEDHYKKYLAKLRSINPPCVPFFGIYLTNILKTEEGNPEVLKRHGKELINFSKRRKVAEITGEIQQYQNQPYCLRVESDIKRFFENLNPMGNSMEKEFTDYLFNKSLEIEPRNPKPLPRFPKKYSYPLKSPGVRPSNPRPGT

Compound | IC50 (SOS1; [3]) | IC50 (SOS1; [4]) | IC50 [1, 5] | IC50 [2, 6] | IC50 [2, 7] | IC50 [1, 8]
Cc1nc(N[C@H](C)c2cccc(C(F)(F)F)c2C)c2cc(C3(C#N)CC3)c(N3CCN(C(C)C)CC3)nc2n1 [Compound 178, (R)-1-(7-(4-isopropylpiperazin-1-yl)-2-methyl-4-((1-(2-methyl-3-(trifluoromethyl)phenyl)ethyl)amino)pyrido[2,3-d]pyrimidin-6-yl)cyclopropane-1-carbonitrile] | < 0.1 µM | < 0.05 µM | 1 to 10 µM | ≤ 1 µM | < 0.5 µM | 
COc1nc2nc(C)nc(N[C@H](C)c3cccc(C(F)(F)CO)c3)c2cc1C1(C#N)CC1 [Compound 179, (R)-1-(4-((1-(3-(1,1-difluoro-2-hydroxyethyl)phenyl)ethyl)amino)-7-methoxy-2-methylpyrido[2,3-d]pyrimidin-6-yl)cyclopropane-1-carbonitrile] | < 0.1 µM | < 0.05 µM | ≤ 1 µM | ≤ 1 µM | < 0.5 µM | < 0.5 µM
COc1nc2nc(C)nc(N[C@H](C)c3cccc(C(F)(F)CCC4CN(C)C4)c3F)c2cc1C1CCS(=O)(=O)CC1 [Compound 180, (R)-4-(4-((1-(3-(1,1-difluoro-3-(1-methylazetidin-3-yl)propyl)-2-fluorophenyl)ethyl)amino)-7-methoxy-2-methylpyrido[2,3-d]pyrimidin-6-yl)tetrahydro-2H-thiopyran 1,1-dioxide] | < 0.1 µM | < 0.05 µM | ≤ 1 µM | ≤ 1 µM | < 0.5 µM | < 0.5 µM
COc1nc2nc(C)nc(N[C@H](C)c3cccc(C(F)(F)CO)c3F)c2cc1N1CCN(C(C)C)CC1 [Compound 181, (R)-2,2-difluoro-2-(2-fluoro-3-(1-((6-(4-isopropylpiperazin-1-yl)-7-methoxy-2-methylpyrido[2,3-d]pyrimidin-4-yl)amino)ethyl)phenyl)ethan-1-ol] | < 0.1 µM | < 0.05 µM | ≤ 1 µM | ≤ 1 µM | < 0.5 µM | < 0.5 µM
Cc1nc(N[C@H](C)c2cccc(C(F)F)c2F)c2cc(N3CCS(=O)(=O)CC3)c(OC3COC3)nc2n1 [Compound 183, (R)-4-(4-((1-(3-(difluoromethyl)-2-fluorophenyl)ethyl)amino)-2-methyl-7-(oxetan-3-yloxy)pyrido[2,3-d]pyrimidin-6-yl)thiomorpholine 1,1-dioxide] | < 0.1 µM | < 0.05 µM | ≤ 1 µM | 1 to 10 µM |  | < 0.5 µM
COc1nc2ncnc(N[C@H](C)c3cccc(C(F)F)c3F)c2cc1C1(C#N)CC1 [Compound 184, (R)-1-(4-((1-(3-(difluoromethyl)-2-fluorophenyl)ethyl)amino)-7-methoxypyrido[2,3-d]pyrimidin-6-yl)cyclopropane-1-carbonitrile] | < 0.1 µM |  | ≤ 1 µM | ≤ 1 µM |  | < 0.5 µM
COc1nc2ncnc(N[C@H](C)c3cccc(C(F)F)c3F)c2cc1C1(C(F)F)CC1 [Compound 185, (R)-N-(1-(3-(difluoromethyl)-2-fluorophenyl)ethyl)-6-(1-(difluoromethyl)cyclopropyl)-7-methoxypyrido[2,3-d]pyrimidin-4-amine] | 0.1 to 1 µM |  | 1 to 10 µM | 1 to 10 µM |  | 
CC(C)N1CCC(c2cc3c(N[C@H](C)c4cccc(C(F)F)c4F)ncnc3nc2OC2CN(C)C2)CC1 [Compound 187, (R)-N-(1-(3-(difluoromethyl)-2-fluorophenyl)ethyl)-6-(1-isopropylpiperidin-4-yl)-7-((1-methylazetidin-3-yl)oxy)pyrido[2,3-d]pyrimidin-4-amine] | < 0.1 µM | < 0.05 µM | 1 to 10 µM | 1 to 10 µM |  | 
CCN1CCN(c2cc3c(N[C@H](C)c4cccc(C(F)F)c4F)nc(C)nc3nc2NC2COC2)CC1 [Compound 188, (R)-N4-(1-(3-(difluoromethyl)-2-fluorophenyl)ethyl)-6-(4-ethylpiperazin-1-yl)-2-methyl-N7-(oxetan-3-yl)pyrido[2,3-d] pyrimidine-4,7-diamine] | < 0.1 µM | < 0.05 µM | ≤ 1 µM | 1 to 10 µM |  | < 0.5 µM
COc1nc2ncnc(N[C@H](C)c3cccc(C(F)F)c3F)c2cc1C1CCN(C(C)C)CC1 [Compound 189, (R)-N-(1-(3-(difluoromethyl)-2-fluorophenyl)ethyl)-6-(1-isopropylpiperidin-4-yl)-7-methoxypyrido[2,3-d]pyrimidin-4-amine] | < 0.1 µM |  | ≤ 1 µM | 1 to 10 µM |  | 
Cc1nc(N[C@H](C)c2cccc(C(F)F)c2F)c2cc(C3(C(F)F)CC3)c(OC3CN(C)C3)nc2n1 [Compound 190, (R)-N-(1-(3-(difluoromethyl)-2-fluorophenyl)ethyl)-6-(1-(difluoromethyl)cyclopropyl)-2-methyl-7-((1-methylazetidin-3-yl)oxy)pyrido[2,3-d] pyrimidin-4-amine] | < 0.1 µM | < 0.05 µM | ≤ 1 µM | ≤ 1 µM | < 0.5 µM | < 0.5 µM
Cc1nc(N[C@H](C)c2cccc(C(F)F)c2F)c2cc(C3CCS(=O)(=O)CC3)c(OC3CN(C)C3)nc2n1 [Compound 191, (R)-4-(4-((1-(3-(difluoromethyl)-2-fluorophenyl)ethyl)amino)-2-methyl-7-((1-methylazetidin-3-yl)oxy)pyrido[2,3-d]pyrimidin-6-yl)tetrahydro-2H-thiopyran 1,1-dioxide] | < 0.1 µM | < 0.05 µM | 1 to 10 µM | 1 to 10 µM |  | 
Cc1nc(N[C@H](C)c2cccc(C(F)F)c2F)c2cc(N3CCN(C(C)C)CC3)c(NC3COC3)nc2n1 [Compound 192, (R)-N4-(1-(3-(difluoromethyl)-2-fluorophenyl)ethyl)-6-(4-isopropylpiperazin-1-yl)-2-methyl-N7-(oxetan-3-yl)pyrido[2,3-d] pyrimidine-4,7-diamine] | < 0.1 µM | < 0.05 µM | ≤ 1 µM | 1 to 10 µM |  | 
Cc1nc(N[C@H](C)c2cccc(C(F)(F)CO)c2)c2cc(C3(C#N)CC3)c(Cl)nc2n1 [Compound 194, (R)-1-(7-chloro-4-((1-(3-(1,1-difluoro-2-hydroxyethyl)phenyl)ethyl)amino)-2-methylpyrido[2,3-d]pyrimidin-6-yl)cyclopropane-1-carbonitrile] | < 0.1 µM | < 0.05 µM | ≤ 1 µM | ≤ 1 µM | < 0.5 µM | 
CCN1CCN(c2cc3c(N[C@H](C)c4cccc(C(F)(F)F)c4F)ncnc3nc2OC)CC1 [Compound 196, (R)-6-(4-ethylpiperazin-1-yl)-N-(1-(2-fluoro-3-(trifluoromethyl)phenyl)ethyl)-7-methoxypyrido[2,3-d]pyrimidin-4-amine] | < 0.1 µM | < 0.05 µM | ≤ 1 µM | ≤ 1 µM | < 0.5 µM | < 0.5 µM
COc1nc2ncnc(N[C@H](C)c3cccc(C(F)(F)F)c3F)c2cc1N1CCN(C)CC1 [Compound 197, (R)-N-(1-(2-fluoro-3-(trifluoromethyl)phenyl)ethyl)-7-methoxy-6-(4-methylpiperazin-1-yl)pyrido[2,3-d] pyrimidin-4-amine] | < 0.1 µM | < 0.05 µM | ≤ 1 µM | ≤ 1 µM | < 0.5 µM | < 0.5 µM
CCN1CCN(c2cc3c(N[C@H](C)c4cccc(C(F)(F)F)c4C)ncnc3nc2OC)CC1 [Compound 198, (R)-6-(4-ethylpiperazin-1-yl)-7-methoxy-N-(1-(2-methyl-3-(trifluoromethyl)phenyl)ethyl)pyrido[2,3-d]pyrimidin-4-amine] | < 0.1 µM | < 0.05 µM | ≤ 1 µM | ≤ 1 µM | < 0.5 µM | < 0.5 µM
CCN1CCC(c2cc3c(N[C@H](C)c4cccc(C(F)(F)F)c4F)ncnc3nc2OC)CC1 [Compound 199, (R)-6-(1-ethylpiperidin-4-yl)-N-(1-(2-fluoro-3-(trifluoromethyl)phenyl)ethyl)-7-methoxypyrido[2,3-d]pyrimidin-4-amine] | < 0.1 µM | < 0.05 µM | ≤ 1 µM | ≤ 1 µM | < 0.5 µM | < 0.5 µM
COc1nc2nc(OCC3CN(C)C3)nc(N[C@H](C)c3cccc(C(F)F)c3F)c2cc1C1(C#N)CC1 [Compound 203, (R)-1-(4-((1-(3-(difluoromethyl)-2-fluorophenyl)ethyl)amino)-7-methoxy-2-((1-methylazetidin-3-yl)methoxy)pyrido[2,3-d]pyrimidin-6-yl)cyclopropane-1-carbonitrile] | < 0.1 µM | < 0.05 µM | ≤ 1 µM | 1 to 10 µM |  | 
COc1nc2ncnc(N[C@H](C)c3cccc(C(F)(F)CO)c3F)c2cc1N1CCN(C(C)C)CC1 [Compound 204, (R)-2,2-difluoro-2-(2-fluoro-3-(1-((6-(4-isopropylpiperazin-1-yl)-7-methoxypyrido[2,3-d]pyrimidin-4-yl)amino)ethyl)phenyl)ethan-1-ol] | < 0.1 µM | < 0.05 µM | ≤ 1 µM | ≤ 1 µM | < 0.5 µM | < 0.5 µM
